Laboratory results as given in patent US9062061B2, “Compound having PARP inhibitory activity” (SANTEN PHARMACEUTICAL CO., LTD., priority 2011, dated 2015).

Target: T1, human recombinant PARP1 (Homo sapiens, UniProt P09874)
T1 construct: purchased Trevigen 4677-096-K
Assay: PARP inhibitory activity measurement test (Universal Colorimetric PARP Assay kit, Trevigen)
Type: biochemical
Conditions: compound concentration: 10 μM, read-out: PARP1 inhibition rate (%)
Procedure: For evaluating PARP inhibitory activity of the present compound, inhibitory activity of each test compound against human recombinant PARP 1 was measured using Universal Colorimetric PARP Assay kit with Histone-Coated Strip Wells (Cat No.: 4677-096-K) available from Trevigen. The test was conducted according to the procedure in the instruction attached to this kit. The concrete operation will be described below.
After dissolving the test compound in dimethyl sulfoxide, the solution was diluted with a PARP buffer attached to the kit to prepare a 50 μM test compound solution.
In each well of a histone-coated 96-well plate, 10 μL of the test compound solution (50 μM), 15 μL of human recombinant PARP1 (33.3 Unit/mL) and 25 μL of PARP cocktail (containing activated DNA and biotinated NAD) were added, and incubated at room temperature for 1 hour (final reaction amount: 50 μL). Each well was washed twice with 200 μL of 0.1% Triton-X-containing Dulbecco's phosphate buffer, and further washed twice with 200 μL of Dulbecco's phosphate buffer, and then 50 μL of Strep-HRP was added, followed by incubation at room temperature for 1 hour. Each well was washed twice with 200 μL of 0.1% Triton-X-containing Dulbecco's phosphate buffer, and further washed twice with 200 μL of Dulbecco's phosphate buffer, and then 50 μL of TACS-Sapphire coloriometric substrate was added, followed by incubation at room temperature for 15 minutes. After stopping the reaction by adding 50 μL of 0.2 M HCl, absorbance at 450 nm (Abs 450) was measured by a microplate reader. The number of examples in each group was 1 to 2.
Using a well into which dimethyl sulfoxide and a PARP buffer were added in place of the test compound solution and human recombinant PARP1, the above operation was conducted as a negative control.
Using a well into which a PARP buffer containing dimethyl sulfoxide was added in place of the test compound solution, the above operation was conducted as a positive control.
PARP1 inhibition rate (%) was calculated according to the following Formula 1. PARP1 inhibition rate(%)=(AbsB−AbsX)/(AbsB−AbsA)×100 [Formula 1]
AbsA: absorbance of negative control (Abs 450)
AbsB: absorbance of positive control (Abs 450)
AbsX: absorbance of test compound-treated group (Abs 450)

T1 sequence (P09874 whole entry): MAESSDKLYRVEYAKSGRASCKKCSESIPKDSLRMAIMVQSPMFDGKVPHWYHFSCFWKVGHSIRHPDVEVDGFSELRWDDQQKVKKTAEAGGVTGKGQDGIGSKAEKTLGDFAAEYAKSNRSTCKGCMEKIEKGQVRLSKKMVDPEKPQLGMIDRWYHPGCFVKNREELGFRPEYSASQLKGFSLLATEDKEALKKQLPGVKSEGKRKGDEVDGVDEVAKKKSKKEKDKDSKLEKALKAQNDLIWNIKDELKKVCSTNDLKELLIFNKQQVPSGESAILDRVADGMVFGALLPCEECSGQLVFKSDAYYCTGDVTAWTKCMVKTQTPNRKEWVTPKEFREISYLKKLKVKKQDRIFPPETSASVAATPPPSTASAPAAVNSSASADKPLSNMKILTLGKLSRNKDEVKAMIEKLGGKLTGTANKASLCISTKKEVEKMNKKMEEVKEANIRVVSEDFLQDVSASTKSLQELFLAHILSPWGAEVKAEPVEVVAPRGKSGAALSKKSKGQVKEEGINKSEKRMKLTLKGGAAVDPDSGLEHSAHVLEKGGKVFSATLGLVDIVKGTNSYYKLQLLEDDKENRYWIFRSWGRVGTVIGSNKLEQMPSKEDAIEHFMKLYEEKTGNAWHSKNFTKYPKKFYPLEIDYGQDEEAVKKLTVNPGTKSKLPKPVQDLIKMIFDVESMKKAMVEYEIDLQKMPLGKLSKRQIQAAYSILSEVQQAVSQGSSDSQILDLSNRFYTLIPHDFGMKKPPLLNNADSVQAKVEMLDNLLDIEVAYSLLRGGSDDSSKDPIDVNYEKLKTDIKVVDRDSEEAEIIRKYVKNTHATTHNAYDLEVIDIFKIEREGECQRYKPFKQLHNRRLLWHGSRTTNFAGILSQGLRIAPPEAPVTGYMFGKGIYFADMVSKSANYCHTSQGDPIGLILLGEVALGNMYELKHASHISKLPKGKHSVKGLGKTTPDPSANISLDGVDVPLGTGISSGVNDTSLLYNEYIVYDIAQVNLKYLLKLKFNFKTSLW

For `O=C(c1cc2[nH]c(=O)c3ccccc3n2c1)N1CCN(c2ccc(F)cc2)CC1` [Compound 1-1, 2-[4-(4-Fluorophenyl)piperazine-1-carbonyl]pyrrolo[1,2-a]quinazolin-5(4H)-one], the inhibition at 10 µM was 90%.
With `O=C(c1cc2[nH]c(=O)c3ccccc3n2c1)N1CCN(Cc2ccc(Cl)cc2)CC1` [Compound 1-2, 2-[4-(4-Chlorobenzyl)piperazine-1-carbonyl]pyrrolo[1,2-a]quinazolin-5(4H)-one] the inhibition at 10 µM was 55%.
`O=C(c1cc2[nH]c(=O)c3ccccc3n2c1)N1CCN(c2nccs2)CC1` [Compound 1-3, 2-[4-(Thiazol-2-yl)piperazine-1-carbonyl]pyrrolo[1,2-a]quinazolin-5(4H)-one] showed an inhibition at 10 µM of 100%.
In the case of `O=C(c1cc2[nH]c(=O)c3ccccc3n2c1)N1CCN(c2ccccc2)CC1` [Compound 1-4, 2-(4-Phenylpiperazine-1-carbonyl)pyrrolo[1,2-a]quinazolin-5(4H)-one], the inhibition at 10 µM is reported as 99%.
For `O=C(c1cc2[nH]c(=O)c3ccccc3n2c1)N1CCC(c2ccccc2)CC1` [Compound 1-5, 2-(4-Phenylpiperidine-1-carbonyl)pyrrolo[1,2-a]quinazolin-5(4H)-one], the inhibition at 10 µM was 71%.
In the case of `O=C(c1cc2[nH]c(=O)c3ccccc3n2c1)N1CC=C(c2ccccc2)CC1` [Compound 1-6, 2-(4-Phenyl-1,2,3,6-tetrahydropyridine-1-carbonyl)pyrrolo[1,2-a]quinazolin-5(4H)-one], the inhibition at 10 µM is reported as 23%.
In the case of `O=C(c1cc2[nH]c(=O)c3ccccc3n2c1)N1CC=C(c2ccc(Cl)cc2)CC1` [Compound 1-7, 2-[4-(4-Chlorophenyl)-1,2,3,6-tetrahydropyridine-1-carbonyl]pyrrolo[1,2-a]quinazolin-5(4H)-one], the inhibition at 10 µM is reported as 44%.
Molecule `O=C(c1cc2[nH]c(=O)c3ccccc3n2c1)N1CC=C(c2ccc(F)cc2)CC1` [Compound 1-8, 2-[4-(4-Fluorophenyl)-1,2,3,6-tetrahydropyridine-1-carbonyl]pyrrolo[1,2-a]quinazolin-5(4H)-one] has an inhibition at 10 µM of 51%.
`CN1CCN(C(=O)c2cc3[nH]c(=O)c4ccccc4n3c2)CC1` [Compound 1-10, 2-(4-Methylpiperazine-1-carbonyl)pyrrolo[1,2-a]quinazolin-5(4H)-one] showed an inhibition at 10 µM of 68%.
`O=C(c1cc2[nH]c(=O)c3ccccc3n2c1)N1CCN(Cc2ccccc2)CC1` [Compound 1-11, 2-(4-Benzylpiperazine-1-carbonyl)pyrrolo[1,2-a]quinazolin-5(4H)-one] was tested, and the inhibition at 10 µM was 86%.
For `O=C(c1cc2[nH]c(=O)c3ccccc3n2c1)N1CCN(c2ccc(Cl)cc2)CC1` [Compound 1-12, 2-[4-(4-Chlorophenyl)piperazine-1-carbonyl]pyrrolo[1,2-a]quinazolin-5(4H)-one], the inhibition at 10 µM was 64%.
For `O=C(c1cc2[nH]c(=O)c3ccccc3n2c1)N1CCN(Cc2ccc(F)cc2)CC1` [Compound 1-13, 2-[4-(4-Fluorobenzyl)piperazine-1-carbonyl]pyrrolo[1,2-a]quinazolin-5(4H)-one], the inhibition at 10 µM was 67%.
`O=C(c1cc2[nH]c(=O)c3ccccc3n2c1)N1CCC(c2ccc(F)cc2)CC1` [Compound 1-14, 2-[4-(4-Fluorophenyl)piperidine-1-carbonyl]pyrrolo[1,2-a]quinazolin-5(4H)-one] showed an inhibition at 10 µM of 44%.
`O=C(c1cc2[nH]c(=O)c3ccccc3n2c1)N1CCN(c2cccc(F)c2)CC1` [Compound 1-15, 2-[4-(3-Fluorophenyl)piperazine-1-carbonyl]pyrrolo[1,2-a]quinazolin-5(4H)-one] was tested, and the inhibition at 10 µM was 74%.
In the case of `O=C(c1cc2[nH]c(=O)c3ccccc3n2c1)N1CCc2ccccc2C1` [Compound 1-21, 2-(3,4-Dihydroisoquinoline-2(1H)-carbonyl)pyrrolo[1,2-a]quinazolin-5(4H)-one], the inhibition at 10 µM is reported as 84%.
In the case of `CC(C)(C)OC(=O)N1CCCN(C(=O)c2cc3[nH]c(=O)c4ccccc4n3c2)CC1` [Compound 1-47, 2-[4-(tert-Butoxycarbonyl)homopiperazine-1-carbonyl]pyrrolo[1,2-a]quinazolin-5(4H)-one], the inhibition at 10 µM is reported as 93%.
In the case of `O=C(Nc1ccccc1)c1cc2[nH]c(=O)c3ccccc3n2c1` [Compound 1-49, 2-(Phenylaminocarbonyl)pyrrolo[1,2-a]quinazolin-5(4H)-one], the inhibition at 10 µM is reported as 36%.
With `CN1CCCN(C(=O)c2cc3[nH]c(=O)c4ccccc4n3c2)CC1` [Compound 1-50, 2-(4-Methylhomopiperazine-1-carbonyl)pyrrolo[1,2-a]quinazolin-5(4H)-one] the inhibition at 10 µM was 92%.
`CN(C)CCNC(=O)c1cc2[nH]c(=O)c3ccccc3n2c1` [Compound 1-51, 2-[(2-Dimethylaminoethyl)aminocarbonyl]pyrrolo[1,2-a]quinazolin-5(4H)-one] gave an inhibition at 10 µM of 92%.
Work on `O=C(NCc1ccncc1)c1cc2[nH]c(=O)c3ccccc3n2c1` [Compound 1-52, 2-[(Pyridin-4-ylmethyl)aminocarbonyl]pyrrolo[1,2-a]quinazolin-5(4H)-one] yielded an inhibition at 10 µM of 94%.
`O=C(NCCN1CCOCC1)c1cc2[nH]c(=O)c3ccccc3n2c1` [Compound 1-53, 2-[2-(Morpholin-4-ylethyl)aminocarbonyl]pyrrolo[1,2-a]quinazolin-5(4H)-one] showed an inhibition at 10 µM of 96%.
Molecule `O=C(NCc1ccccc1)c1cc2[nH]c(=O)c3ccccc3n2c1` [Compound 1-54, 2-(Benzylaminocarbonyl)pyrrolo[1,2-a]quinazolin-5(4H)-one] has an inhibition at 10 µM of 81%.
Work on `O=C(NCCc1ccccc1)c1cc2[nH]c(=O)c3ccccc3n2c1` [Compound 1-55, 2-(2-Phenylethylaminocarbonyl)pyrrolo[1,2-a]quinazolin-5(4H)-one] yielded an inhibition at 10 µM of 81%.
`O=C(NCCCc1ccccc1)c1cc2[nH]c(=O)c3ccccc3n2c1` [Compound 1-56, 2-(3-Phenylpropylaminocarbonyl)pyrrolo[1,2-a]quinazolin-5(4H)-one] was tested, and the inhibition at 10 µM was 83%.
For `O=c1[nH]c2cc(CN3CCN(Cc4ccc(Cl)cc4)CC3)cn2c2ccccc12` [Compound 2-2, 2-[4-(4-Chlorobenzyl)piperazin-1-ylmethyl]pyrrolo[1,2-a]quinazolin-5(4H)-one], the inhibition at 10 µM was 78%.
Molecule `O=c1[nH]c2cc(CN3CCN(c4nccs4)CC3)cn2c2ccccc12` [Compound 2-3, 2-[4-(Thiazol-2-yl)piperazin-1-ylmethyl]pyrrolo[1,2-a]quinazolin-5(4H)-one] has an inhibition at 10 µM of 99%.
`O=c1[nH]c2cc(CN3CCN(c4ccccc4)CC3)cn2c2ccccc12` [Compound 2-4, 2-(4-Phenylpiperazin-1-ylmethyl)pyrrolo[1,2-a]quinazolin-5(4H)-one] was tested, and the inhibition at 10 µM was 100%.
Molecule `O=c1[nH]c2cc(CN3CC=C(c4ccccc4)CC3)cn2c2ccccc12` [Compound 2-6, 2-(4-Phenyl-1,2,3,6-tetrahydropyridin-1-ylmethyl)pyrrolo[1,2-a]quinazolin-5(4H)-one] has an inhibition at 10 µM of 100%.
Molecule `CN1CCN(Cc2cc3[nH]c(=O)c4ccccc4n3c2)CC1` [Compound 2-10, 2-(4-Methylpiperazin-1-ylmethyl)pyrrolo[1,2-a]quinazolin-5(4H)-one] has an inhibition at 10 µM of 98%.
`O=c1[nH]c2cc(CN3CCN(Cc4ccccc4)CC3)cn2c2ccccc12` [Compound 2-11, 2-(4-Benzylpiperazin-1-ylmethyl)pyrrolo[1,2-a]quinazolin-5(4H)-one] was tested, and the inhibition at 10 µM was 99%.
Work on `O=c1[nH]c2cc(CN3CCN(Cc4ccc(F)cc4)CC3)cn2c2ccccc12` [Compound 2-13, 2-[4-(4-Fluorobenzyl)piperazin-1-ylmethyl]pyrrolo[1,2-a]quinazolin-5(4H)-one] yielded an inhibition at 10 µM of 96%.
